{"source": "patent US5892063A", "about": "(Hauser, Inc., priority 1997, dated 1999)", "origin": "cited, not measured here", "key": {"microtubule": {"system": "microtubule", "conditions": "relative to paclitaxel; cited from earlier work"}, "[1]": {"system": "murine and human xenografts", "conditions": "cited from earlier work"}, "tumor models": {"system": "tumor models", "conditions": "vs paclitaxel, cisplatin, cyclophosphamide, doxorubicin; same tumor models; cited from earlier work"}, "[2]": {"conditions": "cited from earlier work"}, "[3]": {"system": "murine and human tumor cell lines", "conditions": "cited from earlier work"}}}
{"smiles": "CC(=O)O[C@@]12CO[C@@H]1C[C@H](O)[C@@]1(C)C(=O)[C@H](O)C3=C(C)[C@@H](OC(=O)[C@H](O)[C@@H](NC(=O)OC(C)(C)C)c4ccccc4)C[C@@](O)([C@@H](OC(=O)c4ccccc4)[C@H]21)C3(C)C", "note": "[Docetaxel, docetaxel]", "values": [{"measurement": "potency as inhibitor of microtubule depolymerization vs paclitaxel", "setting": "microtubule", "result": "twice as potent"}, {"measurement": "in vivo preclinical activity", "setting": "[1]", "result": "impressive"}, {"measurement": "cytotoxic activity vs other antineoplastic agents", "setting": "tumor models", "result": "higher cytoxic activity than other antineoplastic agents"}, {"measurement": "aqueous solubility", "setting": "[2]", "result": "low aqueous solubility"}, {"measurement": "in vitro cytotoxicity", "setting": "[3]", "result": "impressive"}]}
